Earlier results, collected in patent US20230364129A1, “TOPICAL COMPOSITIONS” (Prime Performance Research LLC, priority 2022, published 2023).

Experiments:
[1] = carnosine 200 μmol/L; hydroxyl and/or peroxy-type radicals (Drafi, 2010)
[2] = system: human colorectal cancer cells; settings: by suppressing NF-κB/STAT1 signaling (Lee, 2018)
[3] = system: NF-κB transcription factor in antigen presenting cells
[4] = system: hind paw oedema, synovitis and destruction of the articular cartilage; settings: orally administered; several animal studies (Volpi, 2011)

| effect on hyaluronan degradation [1] | Compound | cell cycle arrest and apoptosis [2] | activation of the NF-κB transcription factor ([3]; antigen presenting cells (Zhang, 2015)) | TNF-α production ([3]; through the TLR/MyD88 pathway (Zhang, 2015)) | hind paw oedema, synovitis and destruction of the articular cartilage [4] |
| --- | --- | --- | --- | --- | --- |
| protective action | NCCC(=O)N[C@@H](Cc1cnc[nH]1)C(=O)O [carnosine, beta-alanyl-L-histidine] | induces cell cycle arrest and apoptosis |  |  |  |
|  | Chondroitin sulfate [CS] |  | could activate | induce TNF-α production | significantly inhibited |
